Source: patent publication US5482943A, “(6-fluoro-1,2-benzisoxazol-3-yl)-1-piperidinyl-alkyl-(2, 9-disubstituted-4H-pyrido[1,2-a]pyrimidin-4-one) derivatives” (Janssen Pharmaceutica N.V., priority 1990, dated 1996)

How the values were obtained:
[1] = system: dopamine; test: Apomorphine antagonism in rats (inhibition of apomorphine-induced agitation and stereotypy); type: in vivo; conditions: Rattus norvegicus, read-out: ED50 for inhibition of apomorphine-induced symptoms
Source text: Apomorphine Antagonism in Rats
The test procedure is described in Arch. Int. Pharmacodyn. […] In Table 1 are listed the ED50 values (mg/kg) for inhibition of apomorphine-induced symptoms obtained with compound (1) and the subsequent apomorphine challenge at different intervals (time).

[2] = system: dopamine; test: Apomorphine antagonism in dogs (absence of apomorphine-induced emesis); type: in vivo, dog; conditions: Canis lupus familiaris
Procedure: Apomorphine Antagonism in Dogs
This test is described in Psychopharmacol. 78, 210-213 (1982) and provides--besides a measure of the potency--a good measure of the duration of action of the tested compounds as dopamine antagonists. Apomorphine (0.31 mg/kg, sc; 4 times the ED95) induced emesis in all control dogs. At different time intervals before the apomorphine challenge, the dogs were pretreated with different doses (iv, sc or po) of the test compound (1). Complete absence of emesis for 1 hour after the challenge was adopted as the criterion for apomorphine antagonism in dogs. Listed are the ED50 values (mg/kg) obtained with compound (1) at different intervals after iv, sc or po administration.

[3] = system: dopamine; test: Amphetamine antagonism in rats (agitation and oxygen hyperconsumption); type: in vivo; conditions: Rattus norvegicus, 0.75 h, compound sc, after 45 min amphetamine 2.5 mg/kg sc
Procedure: Amphetamine Antagonism in Rats
This test procedure is described in Industrial Pharmacology, Part II, Antidepressants, eds, S. Fielding and H. Lal, p. 125-141, Futura Publishing Company (1975). Solvent (controls) or the test compound (1) were injected sc, followed after 45 min by amphetamine (2.5 mg/kg, sc). Starting 15 min after the amphetamine injection, agitation and consumption of oxygen were evaluated every 15 min over a period of 1 hour. Agitation was scored 3 (pronounced), 2 (moderate), 1 (slight) and 0 (absent), the total score maximally being 4×3=12. Oxygen consumption was measured on a mercury manometer simultaneously. Significant inhibition required a total score for agitation of less than 11 (0.3% in controls) or a final scale reading for oxygen consumption of less than 105 Hg units (1.8% in controls; mean=118 units). Blockade of amphetamine-induced agitation was considered complete at a total score of less than 4 and that of oxygen consumption at a scale reading of less than 90 Hg units (i.e. the agitation score and oxygen consumption level of normal rats which is never observed in amphetamine-treated controls). Listed are the ED50 values (mg/kg) obtained with compound (1) and the subsequent amphetamine challenge.

Cc1nc2c(C)cccn2c(=O)c1CCN1CCC(c2noc3cc(F)ccc23)CC1 [Compound 1, 3-[2-[4-(6-fluoro-1,2-benzisoxazol-3-yl)-1-piperidinyl]ethyl]-2,9-dimethyl-4H-pyrido[1,2-a]-pyrimidin-4-one]
ED50 ([1]; Time 0.5 between compound and apomorphine challenge (1.25 mg/kg iv)): 0.021 mg/kg
ED50 ([1]; Time 1 between compound and apomorphine challenge (1.25 mg/kg iv)): 0.018 mg/kg
ED50 ([1]; Time 2 between compound and apomorphine challenge (1.25 mg/kg iv)): 0.032 mg/kg
ED50 ([1]; Time 4 between compound and apomorphine challenge (1.25 mg/kg iv)): 0.068 mg/kg
ED50 ([1]; Time 8 between compound and apomorphine challenge (1.25 mg/kg iv)): 0.29 mg/kg
ED50 ([2]; iv, 0.5 h before apomorphine 0.31 mg/kg sc, read-out: ED50 (iv)): 1.2 µg/kg
ED50 ([2]; iv, 1 h before apomorphine 0.31 mg/kg sc, read-out: ED50 (iv)): 1.1 µg/kg
ED50 ([2]; iv, 2 h before apomorphine 0.31 mg/kg sc, read-out: ED50 (iv)): 1.2 µg/kg
ED50 ([2]; iv, 4 h before apomorphine 0.31 mg/kg sc, read-out: ED50 (iv)): 0.79 µg/kg
ED50 ([2]; iv, 8 h before apomorphine 0.31 mg/kg sc, read-out: ED50 (iv)): 0.89 µg/kg
ED50 ([2]; iv, 16 h before apomorphine 0.31 mg/kg sc, read-out: ED50 (iv)): 1.2 µg/kg
ED50 ([2]; iv, 32 h before apomorphine 0.31 mg/kg sc, read-out: ED50 (iv)): 2.9 µg/kg
ED50 ([2]; po, 0.5 h before apomorphine 0.31 mg/kg sc, read-out: ED50 (po)): 5 µg/kg
ED50 ([2]; po, 1 h before apomorphine 0.31 mg/kg sc, read-out: ED50 (po)): 1.5 µg/kg
ED50 ([2]; po, 2 h before apomorphine 0.31 mg/kg sc, read-out: ED50 (po)): 0.89 µg/kg
ED50 ([2]; po, 4 h before apomorphine 0.31 mg/kg sc, read-out: ED50 (po)): 1.2 µg/kg
ED50 ([2]; po, 8 h before apomorphine 0.31 mg/kg sc, read-out: ED50 (po)): 0.99 µg/kg
ED50 ([2]; po, 16 h before apomorphine 0.31 mg/kg sc, read-out: ED50 (po)): 2.4 µg/kg
ED50 ([2]; po, 32 h before apomorphine 0.31 mg/kg sc, read-out: ED50 (po)): 6.3 µg/kg
ED50 ([2]; sc, 0.5 h before apomorphine 0.31 mg/kg sc, read-out: ED50 (sc)): 4.5 µg/kg
ED50 ([2]; sc, 1 h before apomorphine 0.31 mg/kg sc, read-out: ED50 (sc)): 2.4 µg/kg
ED50 ([2]; sc, 2 h before apomorphine 0.31 mg/kg sc, read-out: ED50 (sc)): 1.4 µg/kg
ED50 ([2]; sc, 4 h before apomorphine 0.31 mg/kg sc, read-out: ED50 (sc)): 0.89 µg/kg
ED50 ([2]; sc, 8 h before apomorphine 0.31 mg/kg sc, read-out: ED50 (sc)): 1.2 µg/kg
ED50 ([2]; sc, 16 h before apomorphine 0.31 mg/kg sc, read-out: ED50 (sc)): 2.2 µg/kg
ED50 ([2]; sc, 32 h before apomorphine 0.31 mg/kg sc, read-out: ED50 (sc)): 4.5 µg/kg
ED50 ([3]; blockade: agitation score <4, read-out: ED50, blockade of amphetamine-induced agitation): 0.064 mg/kg
ED50 ([3]; blockade: scale reading <90 Hg units, read-out: ED50, blockade of oxygen hyperconsumption): 0.19 mg/kg
ED50 ([3]; inhibition: agitation score <11, read-out: ED50, inhibition of amphetamine-induced agitation): 0.014 mg/kg
ED50 ([3]; inhibition: scale reading <105 Hg units, read-out: ED50, inhibition of oxygen hyperconsumption): 0.057 mg/kg
